Among the data in the supplement of paper PMC10307832 are relative viability values, retold here.

Assay in all cases: relative viability (nuclei count vs DMSO), 5 days (fraction); higher = more cells survive
Compound in experiment [1]: C[C@@H](C(=O)N[C@@H](C1CCCCC1)C(=O)N2CCC[C@H]2C(=O)N[C@@H]3[C@@H](CC4=CC=CC=C34)OCC#CC#CCO[C@@H]5CC6=CC=CC=C6[C@@H]5NC(=O)[C@@H]7CCCN7C(=O)[C@H](C8CCCCC8)NC(=O)[C@H](C)NC)NC [AZD5582] + C[C@]1(O)C[C@@H](c2nc(-c3ccc4ccc(-c5ccccc5)nc4c3)c3c(N)nccn32)C1 [Linsitinib] (partner 1 µM)
In outline:
(§1)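 Relative viability was taken as the ratio of nuclei in treated wells to nuclei in vehicle wells. Lung cancer cell lines in 1536-well plates received compounds by pin tool one day after seeding, either one drug alone or a fixed anchor-drug dose plus five library-drug doses (not always all listed) in √10 steps. Nuclei were counted on 4× images after 5 days of treatment, and values are medians of duplicate plates.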

Compound in experiment [2]: Cn1nnc2c(C(N)=O)ncn2c1=O [Temozolomide] + Cc1nc(NC(=O)N2CCC[C@H]2C(N)=O)sc1-c1ccnc(C(C)(C)C(F)(F)F)c1 [Alpelisib] (partner 2 µM)
The gist of the method: as §1

Compound in experiment [3]: Cn1nnc2c(C(N)=O)ncn2c1=O [Temozolomide] + NC(=O)Nc1cc(-c2cccc(F)c2)sc1C(=O)N[C@H]1CCCNC1 [AZD7762] (partner 0.2 µM)
The gist of the method: as §1

Compound in experiment [4]: C[C@@H](C(=O)N[C@@H](C1CCCCC1)C(=O)N2CCC[C@H]2C(=O)N[C@@H]3[C@@H](CC4=CC=CC=C34)OCC#CC#CCO[C@@H]5CC6=CC=CC=C6[C@@H]5NC(=O)[C@@H]7CCCN7C(=O)[C@H](C8CCCCC8)NC(=O)[C@H](C)NC)NC [AZD5582] + CS(=O)(=O)CCNCc1ccc(-c2ccc3ncnc(Nc4ccc(OCc5cccc(F)c5)c(Cl)c4)c3c2)o1 [Lapatinib] (partner 2 µM)
In outline:
as §1

In the case of NCI-H1703, the relative viability amounted to 0.666 in experiment [1] (first compound 0.005 µM); 1.02 in experiment [1] (first compound 0.01581 µM); 0.44 in experiment [1] (first compound 0.05 µM); 0.367 in experiment [2] (first compound 0.2 µM); 0.344 in experiment [2] (first compound 0.6325 µM); 0.463 in experiment [2] (first compound 2 µM). Further, the relative viability in experiment [2] (first compound 6.325 µM) stood at 0.288; in experiment [2] (first compound 20 µM), 0.315; in experiment [3] (first compound 0.2 µM), 0.137; in experiment [3] (first compound 0.6325 µM) it was 0.1; in experiment [3] (first compound 2 µM) it was 0.125; in experiment [3] (first compound 6.325 µM) it was 0.147. Also, the relative viability amounted to 0.107 in experiment [3] (first compound 20 µM); 0.815 in experiment [4] (first compound 0.001581 µM); 0.691 in experiment [4] (first compound 0.005 µM); 1.16 in experiment [4] (first compound 0.01581 µM); 0.681 in experiment [4] (first compound 0.05 µM).
